Measurements from patent US9504722B2, “Anti-obese compositions containing holoptelea integrifolia extracts” (Laila Nutraceuticals, priority 2007, dated 2016).

Tests used:
[1] = test system: Sprague-Dawley rats on high fat diet; experiment: Protective effect against diet induced obesity in rats; type: in vivo, rat; settings: 7 mg/kg body weight, 8 weeks, vs control group
Description: Protective Effect of Holoptelea integrifolia Against Diet Induced Obesity in Rats.
Selected healthy Sprague-Dawley rats were randomly assigned to control or various treatment groups (n=6). All the animals allocated for protective phase of the study were on dietary intervention by feeding high fat diet ad libitum and the animals allocated to treatment groups were simultaneously given oral administration of 100 mg or 250 mg/kg Holoptelea integrifolia methanol extract in 10 mL of 0.5% CMC, using gastric tube for the entire 8 week study duration. The test animals of the control group were simultaneously given 10 ml/kg of 0.5% CMC. Sibutramine (7 mg/kg body weight) was used as a positive control. Food and water consumption were recorded daily, body weights were recorded weekly and fasting blood samples were collected before initiation, after 4th week and 8th week (termination) of the study. The weight gain is plotted against the study duration in weeks (FIG. I). […] Upon administration of Holoptelea integrifolia alcohol extract for a period of 60 days, the level of triglyceride in the obese rats was reduced by 50% compared to the control. The levels of serum cholesterol and LDL were reduced by 40% and 45% respectively, whereas the level of HDL was increased by 25%.

[2] = test system: diet induced obese Sprague-Dawley rats; experiment: Anti-obese activity in diet induced obese rats (therapeutic); type: in vivo, rat; settings: 7 mg/kg body weight, 5 weeks after 8 weeks high fat diet, vs control group
Description: Anti-Obese Activity of Holoptelea integrifolia in Diet Induced Obese Rats.
Selected healthy Sprague-Dawley rats were randomly assigned to control or various treatment groups (n=6). All the animals allocated for the study were made obese through dietary intervention by feeding high fat diet ad libitum for 8 weeks. After 8 weeks, the treatment group of animals was given oral administration of 250 mg/kg or 500 mg/kg of Holoptelea integrifolia alcohol extract in 10 mL of 0.5% CMC, using gastric tube for 5 week study duration. Sibutramine (7 mg/kg body weight) is used as a positive control. The control group of animals were given 10 ml/kg of 0.5% CMC. Food and water consumption were recorded daily, body weights were recorded weekly and fasting blood samples were collected before initiation after 5th week of the study. The weight gain for different groups compared at weekly intervals (FIG. II).

CC(C)CC(N(C)C)C1(c2ccc(Cl)cc2)CCC1 (centres unmarked) [Sibutramine]
reduction in weight gain [1]: 30.5%
reduction in weight gain [2]: 123.1%
